Results from patent publication US20090203709A1, “Pharmaceutical Dosage Form For Oral Administration Of Tyrosine Kinase Inhibitor” (ABBOTT LABORATORIES, priority 2008, published 2009).
Like-named read-outs stand apart in the source and are kept apart here. Marks after values point to notes of the source that are not given here.

Experiments:
[1] = Safety in study M04-710 (adverse events, DLTs); format: in vivo, human
Protocol: Study M04-710 and M05-756 are ongoing, open-label, multiple-dose escalation trials with ABT-869 administered daily for 21 consecutive days, with dose escalation scheduled in cohorts of 3 subjects. […] In both studies dosing was initiated at 10 mg QD, with subjects self-administering ABT-869 orally (admixed with approximately 60 mL of Ensure Plus or an approved alternative) at bedtime. Food was not allowed 2 h before or after dosing. As a portion of trial M04-710, the bioavailability of ABT-869 as a single dose in a 10 mg tablet formulation was determined relative to the solution formulation.
(§1) The following safety evaluations were performed during the studies: adverse event monitoring, vital signs, ECGs, physical examination and laboratory tests assessments.

[2] = PK comparison across studies M04-710 and M05-756 (race, cancer type); format: in vivo, human; settings: for Dose Normalized AUC24 / Dose Normalized Cmax: steady state; for half-life: human, plasma, oral
Protocol: The objective of this analysis was to compare pharmacokinetic (PK) parameters and to monitor safety and early efficacy of ABT-869 when treating solid tumors versus hematologic malignances, Asian versus Caucasian populations and using solution versus tablet formulations.
In study M04-710, blood samples for pharmacokinetic analysis were collected on Days 1 and 15 at the following times: 0 (pre-dose), 0.5, 1, 2, 3, 4, 6, 8, and 24 h (Day 1 only).
In study M05-756, blood samples for pharmacokinetic analysis were collected on Days 1 and 8 at the following times: 0 (pre-dose), 0.5, 1, 2, 3, 4, 6, 8, and 24 h (Day 1 only). Urine was collected for the 24 hour period following dosing on Day 13 through bedtime on Day 14 (non-hematologic malignancy study) and following dosing after Day 6 and through bedtime on Day 7 (AML/MDS study). Plasma and urine concentrations of ABT-869 were determined under the supervision of the Drug Analysis Department at Abbott using LCMS/MS. PK parameters were determined by noncompartmental analysis using WinNonlin Professional Version 5.0.1.

[3] = human, in vivo
Protocol: Food was not allowed 2 h before or after dosing.
as §1

[4] = all cycles, N = 27, highest grade per subject
[5] = all cycles, N = 27, includes Skin Reaction, Skin Lesion, and Rash
[6] = Asian population, N 37, adjusted mean (% CV)
[7] = Caucasian population, N 12, adjusted mean (% CV)
[8] = Hematologic malignancies, N 17, adjusted mean (% CV)
[9] = Solid tumors, N 32, adjusted mean (% CV)

Cc1ccc(F)c(NC(=O)Nc2ccc(-c3cccc4[nH]nc(N)c34)cc2)c1 [ABT-869, N-[4-(3-amino-1H-indazol-4-yl)phenyl]-N′-(2-fluoro-5-methylphenyl)urea]
DLT: Grade 3 hypertension ([1]; 0.10 mg/kg): 1 patient
DLT: Grade 3 hypertension ([1]; 0.25 mg/kg): 1 patient
DLT: Grade 3 proteinuria ([1]; 0.25 mg/kg): 1 patient
DLT: Grade 3 proteinuria and Grade 3 hypertension ([1]; 0.30 mg/kg): 2 patients
DLT: Grade 3 fatigue ([1]; 10 mg/body): 1 patient
Anorexia, Overall ([1]; all cycles, N = 27): 7 (25.9) n (%)
Arthralgia, Overall ([1]; all cycles, N = 27): 6 (22.2) n (%)
Constipation, Overall ([1]; all cycles, N = 27): 6 (22.2) n (%)
Diarrhoea, Overall ([1]; all cycles, N = 27): 7 (25.9) n (%)
Fatigue, Overall ([1]; all cycles, N = 27): 22 (81.5) n (%)
Hypertension, Overall ([1]; all cycles, N = 27): 12 (44.4) n (%)
Myalgia, Overall ([1]; all cycles, N = 27): 15 (55.6) n (%)
Nausea, Overall ([1]; all cycles, N = 27): 5 (18.5) n (%)
Oral Pain, Overall ([1]; all cycles, N = 27): 11 (40.7) n (%)
Proteinuria, Overall ([1]; all cycles, N = 27): 6 (22.2) n (%)
Vomiting, Overall ([1]; all cycles, N = 27): 5 (18.5) n (%)
Anorexia, Grade 1 [1, 4]: 6 n
Anorexia, Grade 2 [1, 4]: 1 n
Anorexia, Grade 3/4 [1, 4]: 0 n
Arthralgia, Grade 1 [1, 4]: 5 n
Arthralgia, Grade 2 [1, 4]: 1 n
Arthralgia, Grade 3/4 [1, 4]: 0 n
Constipation, Grade 1 [1, 4]: 0 n
Constipation, Grade 2 [1, 4]: 6 n
Constipation, Grade 3/4 [1, 4]: 0 n
Diarrhoea, Grade 1 [1, 4]: 6 n
Diarrhoea, Grade 2 [1, 4]: 1 n
Diarrhoea, Grade 3/4 [1, 4]: 0 n
Fatigue, Grade 1 [1, 4]: 14 n
Fatigue, Grade 2 [1, 4]: 4 n
Hypertension, Grade 1 [1, 4]: 0 n
Hypertension, Grade 2 [1, 4]: 8 n
Hypertension, Grade 3/4 [1, 4]: 4 n
Myalgia, Grade 1 [1, 4]: 9 n
Myalgia, Grade 2 [1, 4]: 6 n
Myalgia, Grade 3/4 [1, 4]: 0 n
Nausea, Grade 1 [1, 4]: 3 n
Nausea, Grade 2 [1, 4]: 2 n
Nausea, Grade 3/4 [1, 4]: 0 n
Oral Pain, Grade 1 [1, 4]: 9 n
Oral Pain, Grade 2 [1, 4]: 2 n
Oral Pain, Grade 3/4 [1, 4]: 0 n
Proteinuria, Grade 1 [1, 4]: 0 n
Proteinuria, Grade 2 [1, 4]: 2 n
Proteinuria, Grade 3/4 [1, 4]: 4 n
Vomiting, Grade 1 [1, 4]: 4 n
Vomiting, Grade 2 [1, 4]: 1 n
Vomiting, Grade 3/4 [1, 4]: 0 n
Skin Related Event, Grade 1 [1, 5]: 5 n
Skin Related Event, Grade 2 [1, 5]: 9 n
Skin Related Event, Grade 3/4 [1, 5]: 1 n
Skin Related Event, Overall [1, 5]: 15 (55.6) n (%)
Fatigue, Grade 3/4 ([1]; all cycles, N = 27, occurred in cycle 3 or later): 4** n
dose-limiting toxicities ([1]; study M04-710): hypertension, proteinuria and fatigue are dose-limiting
reversibility of toxicities ([1]; study M04-710): treatable, or reversible with ABT-869 interruption
time to maximum plasma concentration ([2]; 42 patients across studies): approximately 3 h
Dose Normalized AUC24 [2, 6]: 0.264 (41%) μg · hr/mL/mg
Dose Normalized Cmax [2, 6]: 0.018 (37%) μg/mL/mg
Dose Normalized AUC24 [2, 7]: 0.229 (34%) μg · hr/mL/mg
Dose Normalized Cmax [2, 7]: 0.016 (27%) μg/mL/mg
Dose Normalized AUC24 [2, 8]: 0.230 (39%) μg · hr/mL/mg
Dose Normalized Cmax [2, 8]: 0.018 (33%) μg/mL/mg
Dose Normalized AUC24 [2, 9]: 0.273 (40%) μg · hr/mL/mg
Dose Normalized Cmax [2, 9]: 0.017 (39%) μg/mL/mg
half-life ([2]; 42 patients across studies, read-out: mean terminal elimination half-life): 13.9 to 23.1 h
half-life ([2]; Asian population, N 37, adjusted mean (% CV), read-out: T1/2 (converted)): 18.4 h
half-life ([2]; Caucasian population, N 12, adjusted mean (% CV), read-out: T1/2 (converted)): 14.5 h
half-life ([2]; Hematologic malignancies, N 17, adjusted mean (% CV), read-out: T1/2 (converted)): 15.7 h
half-life ([2]; Solid tumors, N 32, adjusted mean (% CV), read-out: T1/2 (converted)): 18.4 h
Klebsiella Bacteraemia, Grade 1 [3]: 0 n
Klebsiella Bacteraemia, Grade 2 [3]: 0 n
Klebsiella Bacteraemia, Grade 3/4 [3]: 2 n
Klebsiella Bacteraemia, Overall [3]: 2 (20.0) n (%)
